US20100267561A1, “HERBICIDAL PYRIDAZINONE DERIVATIVES” (priority 2007, published 2010)

Experiments:
Test in all cases: Test E pre-/postemergence plant response
Format in all cases: in vivo
[1] = system: common chickweed (Stellaria media); conditions: Postemergence, 31 g ai/ha; scale 0 to 100
Method in brief: (§1)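 In this greenhouse assay, sown seeds received preemergence treatment and young plants of 2 to 18 cm (1- to 4-leaf stage) received postemergence treatment, both with compound in a non-phytotoxic solvent and surfactant vehicle. Effects were rated visually 14 to 21 days later on a 0–100 control scale.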

[2] = system: tropical (T.) spiderwort (Commelina benghalensis); conditions: scale 0 to 100
Method in brief: as §1

[3] = system: quackgrass (Elytrigia repens); conditions: scale 0 to 100
Method in brief: as §1

[4] = system: surinam grass (Brachiaria decumbens); conditions: scale 0 to 100
Method in brief: as §1

[5] = system: itchgrass (Rottboellia cochinchinensis); conditions: scale 0 to 100
Method in brief: as §1

[6] = system: green foxtail (Setaria viridis); conditions: scale 0 to 100
Method in brief: as §1

[7] = system: common mallow (Malva sylvestris); conditions: Postemergence, scale 0 to 100
Method in brief: as §1

CCc1cc(-c2ccc(Cl)cc2)nn1-c1c(O)cnn(C)c1=O [Compound 21]
Plant response rating, Chickweed [1]: 0 | Plant response rating, Spiderwort, T. ([2]; 16 g ai/ha, Preemergence): 0 | Plant response rating, Spiderwort, T. ([2]; 31 g ai/ha, Preemergence): 0 | Plant response rating, Spiderwort, T. ([2]; 62 g ai/ha, Preemergence): 0 | Plant response rating, Spiderwort, T. ([2]; Postemergence, 8 g ai/ha): 0 | Plant response rating, Spiderwort, T. ([2]; Postemergence, 16 g ai/ha): 0 | Plant response rating, Spiderwort, T. ([2]; Postemergence, 31 g ai/ha): 0 | Plant response rating, Spiderwort, T. ([2]; Postemergence, 62 g ai/ha): 0 | Plant response rating, Quackgrass ([3]; 16 g ai/ha, Preemergence): 50 | Plant response rating, Quackgrass ([3]; 31 g ai/ha, Preemergence): 90 | Plant response rating, Quackgrass ([3]; 62 g ai/ha, Preemergence): 95 | Plant response rating, Quackgrass ([3]; Postemergence, 8 g ai/ha): 20 | Plant response rating, Quackgrass ([3]; Postemergence, 16 g ai/ha): 35 | Plant response rating, Quackgrass ([3]; Postemergence, 31 g ai/ha): 40 | Plant response rating, Quackgrass ([3]; Postemergence, 62 g ai/ha): 80 | Plant response rating, Surinam Grass ([4]; 16 g ai/ha, Preemergence): 100 | Plant response rating, Surinam Grass ([4]; 31 g ai/ha, Preemergence): 100 | Plant response rating, Surinam Grass ([4]; 62 g ai/ha, Preemergence): 100 | Plant response rating, Surinam Grass ([4]; Postemergence, 8 g ai/ha): 95 | Plant response rating, Surinam Grass ([4]; Postemergence, 16 g ai/ha): 95 | Plant response rating, Surinam Grass ([4]; Postemergence, 31 g ai/ha): 100 | Plant response rating, Surinam Grass ([4]; Postemergence, 62 g ai/ha): 100 | Plant response rating, Itchgrass ([5]; 16 g ai/ha, Preemergence): 65 | Plant response rating, Itchgrass ([5]; 31 g ai/ha, Preemergence): 75 | Plant response rating, Itchgrass ([5]; 62 g ai/ha, Preemergence): 80 | Plant response rating, Itchgrass ([5]; Postemergence, 8 g ai/ha): 50 | Plant response rating, Itchgrass ([5]; Postemergence, 16 g ai/ha): 65 | Plant response rating, Itchgrass ([5]; Postemergence, 31 g ai/ha): 75 | Plant response rating, Itchgrass ([5]; Postemergence, 62 g ai/ha): 75 | Plant response rating, Foxtail, Green ([6]; 8 g ai/ha, Preemergence): 75 | Plant response rating, Foxtail, Green ([6]; 16 g ai/ha, Preemergence): 100 | Plant response rating, Foxtail, Green ([6]; 31 g ai/ha, Preemergence): 100 | Plant response rating, Foxtail, Green ([6]; 62 g ai/ha, Preemergence): 100 | Plant response rating, Foxtail, Green ([6]; Postemergence, 8 g ai/ha): 65 | Plant response rating, Foxtail, Green ([6]; Postemergence, 16 g ai/ha): 75 | Plant response rating, Foxtail, Green ([6]; Postemergence, 31 g ai/ha): 95 | Plant response rating, Foxtail, Green ([6]; Postemergence, 62 g ai/ha): 100 | Plant response rating, Mallow ([7]; 8 g ai/ha): 0 | Plant response rating, Mallow ([7]; 16 g ai/ha): 0 | Plant response rating, Mallow ([7]; 31 g ai/ha): 0 | Plant response rating, Mallow ([7]; 62 g ai/ha): 0
